Reference: article PMC467089, “Click estradiol dimers with novel aromatic bridging units: synthesis and anticancer evaluation” (Journal of Enzyme Inhibition and Medicinal Chemistry, 2024)

Columns and labels:
CCRF-CEM lymphoblasts [1] = experiment: Cell cycle analysis by flow cytometry (propidium iodide); assay type: cell-based, human
Method in brief: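 CCRF-CEM cells treated 24 h, then fixed in cold 70% ethanol, permeabilised with 0.25% Triton X-100 and stained with anti-phospho-histone H3 (Ser10). After 50 μg/mL RNase and propidium iodide, analysed by flow cytometry at 488 nm; sub-G1 events counted as non-viable with fragmented DNA.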

[2] = MTS cytotoxicity assay, HUVEC; assay type: cell-based; conditions: human
Method in brief: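 MTS read-out after 72 h compound exposure at 37 °C. Cells plated the day before, treated with fourfold serial dilutions from DMSO stocks; duplicate wells, three independent experiments.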

[3] = MTS cytotoxicity assay, BJ; assay type: cell-based; conditions: human
Method in brief: (§1)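 Overnight-seeded cells → fourfold serial compound dilutions (DMSO) → 72 h, 37 °C, 5% CO2 → MTS added. Duplicates ×3 biological reps.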

[4] = test system: HCT116 (colorectal adenocarcinoma); experiment: MTS cytotoxicity assay, HCT116; assay type: cell-based; conditions: Homo sapiens, HCT-116, 72 h, read-out: IC50 cytotoxic activity HCT116
Method in brief: as §1

[5] = test system: CCRF-CEM (childhood T-cell acute lymphoblastic leukaemia); experiment: MTS cytotoxicity assay, CCRF-CEM; assay type: cell-based; conditions: Homo sapiens, 72 h, read-out: IC50 cytotoxic activity CCRF-CEM
Method in brief: as §1

CCRF-CEM lymphoblasts [6] = experiment: Phospho-histone H3 (Ser10) mitotic marker, flow cytometry; assay type: cell-based, human
Method in brief: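 Mitotic fraction scored by flow cytometry (488 nm) using Ser10-phosphorylated histone H3 antibody plus propidium iodide DNA stain, following RNase. CCRF-CEM lymphoblasts had 24 h compound exposure before ethanol fixation and Triton X-100 permeabilisation; events below G1 DNA content classed as fragmented-DNA, non-viable cells.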

CCRF-CEM lymphoblasts [7] = experiment: BrU incorporation analysis (RNA synthesis); assay type: cell-based, human
Method in brief: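 CCRF-CEM cells were treated with compounds for 24 h, then pulsed with 1 mM BrU for 30 min and fixed in 1% paraformaldehyde/0.05% NP-40. BrU was detected with a cross-reacting anti-BrdU antibody and FITC secondary, with propidium iodide/RNase counterstain; value is percentage of BrU-positive cells by flow cytometry.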

U2OS (osteosarcoma) = experiment: MTS cytotoxicity assay, U2OS; assay type: cell-based, human; conditions: Homo sapiens, U2OS, 72 h, read-out: IC50 cytotoxic activity U2OS
Method in brief: as §1

[8] = MTS cytotoxicity assay, MRC-5; assay type: cell-based; conditions: human
Method in brief: as §1

[9] = test system: A549 (lung adenocarcinoma); experiment: MTS cytotoxicity assay, A549; assay type: cell-based, human; conditions: Homo sapiens, A549, 72 h, read-out: IC50 cytotoxic activity A549
Method in brief: as §1

[10] = test system: K562 (chronic myelogenous leukaemia); experiment: MTS cytotoxicity assay, K562; assay type: cell-based; conditions: Homo sapiens, K562, 72 h, read-out: IC50 cytotoxic activity K562
Method in brief: as §1

porcine brain tubulin = biological target: T1, porcine brain tubulin (Sus scrofa, UniProt P02550+P02554); experiment: Tubulin polymerisation assay; assay type: biochemical; conditions: 10 μmol/L, Vmax relative to DMSO
T1 construct: purchased Cytoskeleton, Denver, CO; host or cells: porcine brain (tissue-purified)
T1 sequence (P02550 whole entry): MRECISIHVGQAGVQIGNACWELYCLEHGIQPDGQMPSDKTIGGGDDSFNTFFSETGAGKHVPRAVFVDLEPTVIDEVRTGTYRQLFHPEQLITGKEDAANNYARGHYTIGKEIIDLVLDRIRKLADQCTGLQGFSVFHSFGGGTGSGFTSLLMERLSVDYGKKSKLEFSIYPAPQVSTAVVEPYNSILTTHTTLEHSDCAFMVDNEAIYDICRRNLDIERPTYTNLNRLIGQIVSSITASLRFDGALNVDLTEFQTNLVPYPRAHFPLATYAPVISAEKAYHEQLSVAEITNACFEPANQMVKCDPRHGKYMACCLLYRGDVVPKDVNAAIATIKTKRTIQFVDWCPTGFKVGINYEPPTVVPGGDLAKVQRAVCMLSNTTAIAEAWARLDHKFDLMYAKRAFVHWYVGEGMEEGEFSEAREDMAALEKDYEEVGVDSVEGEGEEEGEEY
T1 sequence (P02554 whole entry): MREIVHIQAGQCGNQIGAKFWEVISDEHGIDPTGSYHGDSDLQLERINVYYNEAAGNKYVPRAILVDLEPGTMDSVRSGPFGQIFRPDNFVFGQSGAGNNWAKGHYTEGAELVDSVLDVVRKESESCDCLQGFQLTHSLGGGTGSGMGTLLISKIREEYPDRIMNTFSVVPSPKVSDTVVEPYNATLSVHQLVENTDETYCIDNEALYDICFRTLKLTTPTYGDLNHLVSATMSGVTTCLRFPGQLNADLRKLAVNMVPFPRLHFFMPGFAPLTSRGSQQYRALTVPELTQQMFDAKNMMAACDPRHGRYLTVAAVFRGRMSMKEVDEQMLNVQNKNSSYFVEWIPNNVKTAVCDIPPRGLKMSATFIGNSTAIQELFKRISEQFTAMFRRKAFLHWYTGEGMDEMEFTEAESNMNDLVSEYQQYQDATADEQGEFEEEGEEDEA
Method in brief: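 Polymerisation of >99% pure porcine brain tubulin followed at 37 °C with a commercial kit, with test compounds at 10 μmol/L or DMSO. Maximum polymerisation velocity (Vmax) derived from the polymerisation curves.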

[11] = test system: CEM-DNR (daunorubicin resistant variant of CCRF-CEM); experiment: MTS cytotoxicity assay, CEM-DNR; assay type: cell-based, human; conditions: for IC50: Homo sapiens, CEM-DNR, 72 h, read-out: IC50 cytotoxic activity CEM-DNR
Method in brief: as §1

[12] = test system: HCT116p53−/− (p53 gene null variant of HCT116); experiment: MTS cytotoxicity assay, HCT116p53−/−; assay type: cell-based; conditions: Homo sapiens, HCT-116, 72 h, read-out: IC50 cytotoxic activity HCT116p53-
Method in brief: as §1

[13] = test system: K562-TAX (paclitaxel-resistant variant of K562); experiment: MTS cytotoxicity assay, K562-TAX; assay type: cell-based, human; conditions: for IC50: Homo sapiens, K562-Tax, 72 h, read-out: IC50 cytotoxic activity K562-TAX
Method in brief: as §1

CCRF-CEM lymphoblasts [14] = experiment: BrDU incorporation analysis (DNA synthesis); assay type: cell-based, human
Method in brief: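 Percentage of BrDU-incorporating cells was measured by flow cytometry after anti-BrdU/FITC and propidium iodide staining. Before that, CCRF-CEM lymphoblasts treated 24 h with compound received a 30-min 10 μM BrDU pulse, then ethanol fixation and 2 M HCl denaturation.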

| Structure (SMILES) | <G1 (sub-G1, fragmented DNA), % of positive cells (CCRF-CEM lymphoblasts [1]; 1×IC50, 24 h) [%] | >G2/M (polyploidy), % of positive cells (CCRF-CEM lymphoblasts [1]; 1×IC50, 24 h) [%] | G0/G1, % of positive cells (CCRF-CEM lymphoblasts [1]; 1×IC50, 24 h) [%] | G2/M, % of positive cells (CCRF-CEM lymphoblasts [1]; 1×IC50, 24 h) [%] | S, % of positive cells (CCRF-CEM lymphoblasts [1]; 1×IC50, 24 h) [%] | <G1 (sub-G1, fragmented DNA), % of positive cells (CCRF-CEM lymphoblasts [1]; 5×IC50, 24 h) [%] | >G2/M (polyploidy), % of positive cells (CCRF-CEM lymphoblasts [1]; 5×IC50, 24 h) [%] | G0/G1, % of positive cells (CCRF-CEM lymphoblasts [1]; 5×IC50, 24 h) [%] | G2/M, % of positive cells (CCRF-CEM lymphoblasts [1]; 5×IC50, 24 h) [%] | S, % of positive cells (CCRF-CEM lymphoblasts [1]; 5×IC50, 24 h) [%] | IC50 at 72 h [2] [µM] | IC50 at 72 h [3] [µM] | IC50 [4] [µM] | IC50 [5] [µM] | pH3Ser10, % of positive cells (CCRF-CEM lymphoblasts [6]; 1×IC50, 24 h) [%] | pH3Ser10, % of positive cells (CCRF-CEM lymphoblasts [6]; 5×IC50, 24 h) [%] | BrU, % of positive cells (CCRF-CEM lymphoblasts [7]; 1×IC50, 24 h) [%] | BrU, % of positive cells (CCRF-CEM lymphoblasts [7]; 5×IC50, 24 h) [%] | IC50 (U2OS (osteosarcoma)) [µM] | IC50 at 72 h [8] [µM] | further results |
| --- | --- | --- | --- | --- | --- | --- | --- | --- | --- | --- | --- | --- | --- | --- | --- | --- | --- | --- | --- | --- | --- |
| CC(=O)Oc1c(Cn2cc([C@]3(O)CC[C@H]4[C@@H]5CCc6cc(O)ccc6[C@H]5CC[C@@]43C)nn2)cc(C)cc1Cn1cc([C@]2(O)CC[C@H]3[C@@H]4CCc5cc(O)ccc5[C@H]4CC[C@@]32C)nn1 [ED7, 2,6-Bis({4-[(17β)-3,17-dihydroxyestra-1,3,5(10)-trien-17-yl]-1H-1,2,3-triazol-1-yl}methyl)-4-methylphenyl acetate] | 40.74 | 7.12 | 32.36 | 33.76 | 33.88 | 45.33 | 7.43 | 32.48 | 32.87 | 34.65 | 0.014 ± 0.002 | > 50 | 1.61 ± 0.087 | 1.29 ± 0.13 | 0.68 | 11.22 | 52.67 | 27.20 | 3.86 ± 1.39 | > 50 | IC50 [9]: > 50 µM; IC50 [10]: 0.77 ± 0.13 µM; inhibitory activity against tubulin polymerisation (in words) (porcine brain tubulin): comparable or better inhibitory activity; IC50 [11]: > 50 µM; IC50 [12]: 1.79 ± 0.17 µM; IC50 [13]: > 50 µM; BrDU, % of positive cells (CCRF-CEM lymphoblasts [14]; 1×IC50, 24 h): 9.50%; BrDU, % of positive cells (CCRF-CEM lymphoblasts [14]; 5×IC50, 24 h): 5.65% |
| COc1c(Cn2cc([C@]3(O)CC[C@H]4[C@@H]5CCc6cc(O)ccc6[C@H]5CC[C@@]43C)nn2)cc(C)cc1Cn1cc([C@]2(O)CC[C@H]3[C@@H]4CCc5cc(O)ccc5[C@H]4CC[C@@]32C)nn1 [ED8, (17β,17′β)-17,17′-[(2-Methoxy-5-methylbenzene-1,3-diyl)bis(methanediyl-1H-1,2,3-triazole-1,4-diyl)]bisestra-1,3,5(10)-triene-3,17-diol] | 16.29 | 7.25 | 34.59 | 31.94 | 33.47 | 24.86 | 10.51 | 4.71 | 78.93 | 16.36 | 0.079 ± 0.048 | > 50 | 1.77 ± 0.16 | 1.38 ± 0.18 | 11.01 | 0.63 | 59.19 | 3.11 | 6.93 ± 1.16 | > 50 | IC50 [9]: > 50 µM; IC50 [10]: 0.69 ± 0.15 µM; inhibitory activity against tubulin polymerisation (in words) (porcine brain tubulin): comparable or better inhibitory activity; IC50 cytotoxic activity CEM-DNR [11]: maintained its activity; IC50 [11]: 3.44 ± 0.69 µM; IC50 [12]: 2.01 ± 0.12 µM; IC50 cytotoxic activity K562-TAX [13]: sensitive; IC50 [13]: 13.1 ± 3.69 µM; BrDU, % of positive cells (CCRF-CEM lymphoblasts [14]; 1×IC50, 24 h): 45.06%; BrDU, % of positive cells (CCRF-CEM lymphoblasts [14]; 5×IC50, 24 h): 5.15% |
